Molecules are shown by their SMILES.

The target of this assay is T1, Spf1p (Saccharomyces cerevisiae, UniProt P39986).
T1 sequence (P39986 1-1215): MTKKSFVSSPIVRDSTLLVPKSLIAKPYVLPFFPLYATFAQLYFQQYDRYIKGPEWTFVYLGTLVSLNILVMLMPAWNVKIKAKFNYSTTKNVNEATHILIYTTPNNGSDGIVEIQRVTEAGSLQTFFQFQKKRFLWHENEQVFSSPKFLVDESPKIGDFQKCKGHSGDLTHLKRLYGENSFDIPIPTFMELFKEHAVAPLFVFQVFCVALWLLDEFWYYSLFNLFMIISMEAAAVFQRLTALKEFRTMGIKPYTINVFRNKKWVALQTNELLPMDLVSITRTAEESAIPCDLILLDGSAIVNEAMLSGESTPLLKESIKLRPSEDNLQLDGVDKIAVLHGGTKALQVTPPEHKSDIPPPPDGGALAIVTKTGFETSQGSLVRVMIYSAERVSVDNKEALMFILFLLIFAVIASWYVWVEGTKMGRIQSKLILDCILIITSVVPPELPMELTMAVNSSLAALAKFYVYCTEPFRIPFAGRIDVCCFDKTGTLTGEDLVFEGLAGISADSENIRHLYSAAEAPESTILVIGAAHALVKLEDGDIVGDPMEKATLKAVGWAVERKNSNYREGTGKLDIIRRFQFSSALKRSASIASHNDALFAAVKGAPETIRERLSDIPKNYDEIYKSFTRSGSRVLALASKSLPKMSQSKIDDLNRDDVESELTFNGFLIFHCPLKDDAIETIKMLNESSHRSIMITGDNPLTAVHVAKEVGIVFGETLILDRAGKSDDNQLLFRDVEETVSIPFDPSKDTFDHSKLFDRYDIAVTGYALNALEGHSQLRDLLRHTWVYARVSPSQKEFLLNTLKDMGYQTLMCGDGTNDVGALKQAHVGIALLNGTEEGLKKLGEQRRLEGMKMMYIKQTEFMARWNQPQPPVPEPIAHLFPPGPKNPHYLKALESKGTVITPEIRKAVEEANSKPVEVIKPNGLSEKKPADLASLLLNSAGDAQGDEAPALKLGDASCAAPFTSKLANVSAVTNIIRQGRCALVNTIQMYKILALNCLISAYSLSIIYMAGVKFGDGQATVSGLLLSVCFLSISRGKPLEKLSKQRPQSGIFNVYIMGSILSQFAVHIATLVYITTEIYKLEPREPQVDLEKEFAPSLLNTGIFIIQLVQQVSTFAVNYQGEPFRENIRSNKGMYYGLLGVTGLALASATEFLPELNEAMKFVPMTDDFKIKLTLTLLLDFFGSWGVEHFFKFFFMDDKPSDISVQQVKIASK
Kind of assay: inhibition of ATP hydrolysis by purified Spf1p. Type of assay: biochemical.

Consider `[O]=[V]([OH])([OH])[OH]` [vanadate], for which the affinity, expressed as Ki, was 9.8 ± 2.4 µM.

Source of the values: publication PMC6724510 (Molecular Biology of the Cell, 2019).
